Reference: PubChem BioAssay (NCI)
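Tested at 5 concentrations; 48 h exposure; 96-well plates; endpoints linearly interpolated, else capped at highest concentration. TGI: concentration producing complete growth inhibition.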

Tests used:
Test in all cases: growth of human tumour cells (NCI), 48 h
PC-3 prostate = tested on: PC-3 prostate
LOX IMVI melanoma = tested on: LOX IMVI melanoma
RXF 393 renal = tested on: RXF 393 renal
K-562 leukemia = tested on: K-562 leukemia
SN12C renal = tested on: SN12C renal
MCF7 breast = tested on: MCF7 breast
IGROV1 ovarian = tested on: IGROV1 ovarian
CCRF-CEM leukemia = tested on: CCRF-CEM leukemia
MDA-MB-435 = tested on: MDA-MB-435
UACC-257 melanoma = tested on: UACC-257 melanoma
OVCAR-5 ovarian = tested on: OVCAR-5 ovarian
HT29 colon = tested on: HT29 colon
MALME-3M melanoma = tested on: MALME-3M melanoma
UO-31 renal = tested on: UO-31 renal
CAKI-1 renal = tested on: CAKI-1 renal
RPMI-8226 leukemia = tested on: RPMI-8226 leukemia
UACC-62 melanoma = tested on: UACC-62 melanoma
OVCAR-3 ovarian = tested on: OVCAR-3 ovarian
HCT-15 colon = tested on: HCT-15 colon
BT-549 breast = tested on: BT-549 breast
HL-60(TB) leukemia = tested on: HL-60(TB) leukemia
DU-145 prostate = tested on: DU-145 prostate
SK-MEL-5 melanoma = tested on: SK-MEL-5 melanoma
U251 CNS = tested on: U251 CNS
EKVX NSCLC = tested on: EKVX NSCLC
SF-295 CNS = tested on: SF-295 CNS
SK-OV-3 ovarian = tested on: SK-OV-3 ovarian
NCI-H23 lung = tested on: NCI-H23 lung
SNB-19 CNS = tested on: SNB-19 CNS
HOP-62 NSCLC = tested on: HOP-62 NSCLC
ACHN renal = tested on: ACHN renal
SK-MEL-28 melanoma = tested on: SK-MEL-28 melanoma
SF-539 CNS = tested on: SF-539 CNS
TK-10 renal = tested on: TK-10 renal
NCI-H522 lung = tested on: NCI-H522 lung
NCI/ADR-RES ovarian = tested on: NCI/ADR-RES ovarian
SF-268 CNS = tested on: SF-268 CNS
T-47D breast = tested on: T-47D breast
M14 melanoma = tested on: M14 melanoma
SR leukemia = tested on: SR leukemia
COLO 205 colon = tested on: COLO 205 colon
786-0 renal = tested on: 786-0 renal
SNB-75 CNS = tested on: SNB-75 CNS
KM12 colon = tested on: KM12 colon
SW-620 colon = tested on: SW-620 colon
NCI-H226 lung = tested on: NCI-H226 lung
A549 NSCLC = tested on: A549 NSCLC
MDA-MB-231 breast = tested on: MDA-MB-231 breast
HCT-116 colon = tested on: HCT-116 colon
OVCAR-8 ovarian = tested on: OVCAR-8 ovarian
MDA-N = tested on: MDA-N
MOLT-4 leukemia = tested on: MOLT-4 leukemia
A498 renal = tested on: A498 renal
HS 578T breast = tested on: HS 578T breast
HCC-2998 colon = tested on: HCC-2998 colon
OVCAR-4 ovarian = tested on: OVCAR-4 ovarian
SK-MEL-2 melanoma = tested on: SK-MEL-2 melanoma
NCI-H460 lung = tested on: NCI-H460 lung

Measured: TGI

CN1CN(c2ccccc2)C2(CCN(CCCCCCF)CC2)C1=O
40.3 µM: NCI/ADR-RES ovarian
> 100 µM: PC-3 prostate | LOX IMVI melanoma | RXF 393 renal | K-562 leukemia | SN12C renal | IGROV1 ovarian | CCRF-CEM leukemia | MDA-MB-435 | UACC-257 melanoma | OVCAR-5 ovarian | HT29 colon | MALME-3M melanoma | CAKI-1 renal | RPMI-8226 leukemia | UACC-62 melanoma | OVCAR-3 ovarian | HCT-15 colon | BT-549 breast | HL-60(TB) leukemia | DU-145 prostate | SK-MEL-5 melanoma | U251 CNS | EKVX NSCLC | SF-295 CNS | SK-OV-3 ovarian | NCI-H23 lung | SNB-19 CNS | ACHN renal | SK-MEL-28 melanoma | TK-10 renal | NCI-H522 lung | SF-268 CNS | T-47D breast | M14 melanoma | SR leukemia | 786-0 renal | SNB-75 CNS | KM12 colon | SW-620 colon | NCI-H226 lung | A549 NSCLC | MDA-MB-231 breast | HCT-116 colon | OVCAR-8 ovarian | MDA-N | MOLT-4 leukemia
60.6 µM: MCF7 breast
47.3 µM: COLO 205 colon
92.4 µM: SF-539 CNS
94.2 µM: UO-31 renal
93.3 µM: HOP-62 NSCLC

CN1N=C(c2ccncc2)OC1c1cccc(C(F)(F)F)c1 (stereo not given)
65.8 µM: SF-539 CNS
> 100 µM: PC-3 prostate | LOX IMVI melanoma | RXF 393 renal | K-562 leukemia | SN12C renal | IGROV1 ovarian | CCRF-CEM leukemia | MDA-MB-435 | UACC-257 melanoma | OVCAR-5 ovarian | A498 renal | HT29 colon | UO-31 renal | HS 578T breast | RPMI-8226 leukemia | UACC-62 melanoma | HCC-2998 colon | OVCAR-3 ovarian | HCT-15 colon | HL-60(TB) leukemia | OVCAR-4 ovarian | DU-145 prostate | SK-MEL-5 melanoma | U251 CNS | EKVX NSCLC | SF-295 CNS | SK-OV-3 ovarian | NCI-H23 lung | SNB-19 CNS | HOP-62 NSCLC | ACHN renal | SK-MEL-28 melanoma | TK-10 renal | SK-MEL-2 melanoma | NCI-H522 lung | NCI/ADR-RES ovarian | SF-268 CNS | T-47D breast | M14 melanoma | COLO 205 colon | 786-0 renal | KM12 colon | SW-620 colon | NCI-H226 lung | A549 NSCLC | MDA-MB-231 breast | NCI-H460 lung | HCT-116 colon | OVCAR-8 ovarian | MDA-N | MOLT-4 leukemia
87.3 µM: SNB-75 CNS
